Data on 18 compounds can be found in patent US20230322761A1, “DEGRADATION OF BRUTON'S TYROSINE KINASE (BTK) BY CONJUGATION OF BTK INHIBITORS WITH E3 LIGASE LIGAND AND METHODS OF USE” (BEIGENE, LTD., priority 2020, published 2023).

Molecules are shown by their SMILES.

The target in the assay is T1, BTK (Homo sapiens, UniProt Q06187).
T1 construct: endogenous in cells; host or cells: TMD-8 cells
T1 sequence (Q06187 whole entry): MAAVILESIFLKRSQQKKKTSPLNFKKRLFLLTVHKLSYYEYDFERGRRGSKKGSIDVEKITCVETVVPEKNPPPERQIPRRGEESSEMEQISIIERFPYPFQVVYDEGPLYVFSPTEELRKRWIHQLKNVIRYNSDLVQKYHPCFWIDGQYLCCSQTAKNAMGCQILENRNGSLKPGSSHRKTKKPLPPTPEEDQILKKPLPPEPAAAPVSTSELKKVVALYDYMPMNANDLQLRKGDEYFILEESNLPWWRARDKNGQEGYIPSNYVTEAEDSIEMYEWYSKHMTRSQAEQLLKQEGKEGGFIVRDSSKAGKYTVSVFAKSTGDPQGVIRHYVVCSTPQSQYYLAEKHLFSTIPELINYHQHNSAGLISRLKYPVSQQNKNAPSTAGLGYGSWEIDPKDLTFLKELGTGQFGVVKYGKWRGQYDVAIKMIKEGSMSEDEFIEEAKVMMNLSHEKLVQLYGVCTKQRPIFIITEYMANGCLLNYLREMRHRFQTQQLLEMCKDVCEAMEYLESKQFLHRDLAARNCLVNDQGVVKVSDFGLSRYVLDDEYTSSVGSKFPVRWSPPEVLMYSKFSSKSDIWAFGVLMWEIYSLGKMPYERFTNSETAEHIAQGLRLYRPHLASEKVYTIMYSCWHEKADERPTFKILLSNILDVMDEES
In words: BTK degradation in TMD-8 cells, HTRF assay after 6 h treatment. The note with it: IC50 (DC50) of BTK degradation. Type of assay: cell-based. In short, it runs like this:
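Remaining BTK was quantified by HTRF in lysates of TMD-8 cells after 6 h exposure to an 8-point, 6-fold compound series (500× stocks in DMSO starting at 1 mM; 0.2% DMSO). Lysis 30 min, antibodies overnight at room temperature, ratio read at 665/620 nm; DC50 fitted with a four-parameter logistic equation.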
A general note: In TR-FRET formats the signal depends on donor and acceptor labels being close together.
A word on the DC50: it is the concentration giving 50% degradation. A higher DC50 goes with a less potent degrader. For `Cc1cc(-c2n[nH]c3ncc(-c4ccc(N5CCN(CCc6ccc([C@@H]7CCC(=O)NC7=O)cn6)CC5)cc4)cc23)ccc1[C@@H](C)NC(=O)c1noc(C(C)(C)C)n1` [Example 139, 5-(tert-butyl)-N—((R)-1-(4-(5-(4-(4-(2-(5-((S)-2,6-dioxopiperidin-3-yl)pyridin-2-yl)ethyl)piperazin-1-yl)phenyl)-1H-pyrazolo[3,4-b]pyridin-3-yl)-2-methylphenyl)ethyl)-1,2,4-oxadiazole-3-carboxamide], the 50% degradation concentration (DC50) was 1.03 nM.

`Cc1cc(-c2n[nH]c3ncc(-c4ccc(N5CCN(CCc6ccc([C@H]7CCC(=O)NC7=O)cn6)CC5)cc4)cc23)ccc1[C@@H](C)NC(=O)c1noc(C(C)(C)C)n1` [Example 140, 5-(tert-butyl)-N—((R)-1-(4-(5-(4-(4-(2-(5-((R)-2,6-dioxopiperidin-3-yl)pyridin-2-yl)ethyl)piperazin-1-yl)phenyl)-1H-pyrazolo[3,4-b]pyridin-3-yl)-2-methylphenyl)ethyl)-1,2,4-oxadiazole-3-carboxamide] gave a DC50 of 1.11 nM.

`Cc1cc(CCN2CCN(c3ccc(-c4cnc5[nH]nc(-c6ccc([C@@H](C)NC(=O)c7noc(C(C)(C)C)n7)c(C)c6)c5c4)cc3)CC2)ncc1C1CCC(=O)NC1=O` (stereo partly drawn) [Example 141, 5-(tert-butyl)-N-((1R)-1-(4-(5-(4-(4-(2-(5-(2,6-dioxopiperidin-3-yl)-4-methylpyridin-2-yl)ethyl)piperazin-1-yl)phenyl)-1H-pyrazolo[3,4-b]pyridin-3-yl)-2-methylphenyl)ethyl)-1,2,4-oxadiazole-3-carboxamide] registered a DC50 of 3.27 nM. Take `Cc1cc(-c2n[nH]c3ncc(-c4ccc(N5CCN(CCCOc6ccc(NC7CCC(=O)NC7=O)c(F)c6)CC5)cc4)cc23)ccc1[C@@H](C)NC(=O)c1noc(C(C)(C)C)n1` (stereo partly drawn) [Example 142, 5-(tert-butyl)-N-((1R)-1-(4-(5-(4-(4-(3-(4-((2,6-dioxopiperidin-3-yl)amino)-3-fluorophenoxy)propyl)piperazin-1-yl)phenyl)-1H-pyrazolo[3,4-b]pyridin-3-yl)-2-methylphenyl)ethyl)-1,2,4-oxadiazole-3-carboxamide]: the DC50 is 6.15 nM. As for `Cc1cc(-c2n[nH]c3ncc(-c4ccc(N5CCN(CCn6cc(N7CCC(=O)NC7=O)cn6)CC5)cc4)cc23)ccc1[C@@H](C)NC(=O)c1noc(C(C)(C)C)n1` [Example 143, (R)-5-(tert-butyl)-N-(1-(4-(5-(4-(4-(2-(4-(2,4-dioxotetrahydropyrimidin-1(2H)-yl)-1H-pyrazol-1-yl)ethyl)piperazin-1-yl)phenyl)-1H-pyrazolo[3,4-b]pyridin-3-yl)-2-methylphenyl)ethyl)-1,2,4-oxadiazole-3-carboxamide], the figure is 18.8 nM; as for `Cc1cc(-c2n[nH]c3ncc(-c4ccc(N5CCC(CN6CCN(c7ccc(N8CCC(=O)NC8=O)cc7)CC6)CC5)cc4)cc23)ccc1[C@@H](C)NC(=O)c1noc(C(C)(C)C)n1` [Example 144, (R)-5-(tert-butyl)-N-(1-(4-(5-(4-(4-((4-(4-(2,4-dioxotetrahydropyrimidin-1(2H)-yl)phenyl)piperazin-1-yl)methyl)piperidin-1-yl)phenyl)-1H-pyrazolo[3,4-b]pyridin-3-yl)-2-methylphenyl)ethyl)-1,2,4-oxadiazole-3-carboxamide], 1.93 nM. Then `Cc1cc(CCN2CCC(c3ccc(-c4cnc5[nH]nc(-c6ccc([C@@H](C)NC(=O)c7noc(C(C)(C)C)n7)c(C)c6)c5c4)nc3)CC2)ncc1C1CCC(=O)NC1=O` (stereo partly drawn) [Example 145, 5-(tert-butyl)-N-((1R)-1-(4-(5-(5-(1-(2-(5-(2,6-dioxopiperidin-3-yl)-4-methylpyridin-2-yl)ethyl)piperidin-4-yl)pyridin-2-yl)-1H-pyrazolo[3,4-b]pyridin-3-yl)-2-methylphenyl)ethyl)-1,2,4-oxadiazole-3-carboxamide], with 1.22 nM; and `Cc1cc(-c2n[nH]c3ncc(-c4ccc(N5CCN(CCc6ccc(C7CCC(=O)NC7=O)c(F)c6)CC5)cn4)cc23)ccc1[C@@H](C)NC(=O)c1noc(C(C)(C)C)n1` (stereo partly drawn) [Example 146, 5-(tert-butyl)-N-((1R)-1-(4-(5-(5-(4-(4-(2,6-dioxopiperidin-3-yl)-3-fluorophenethyl)piperazin-1-yl)pyridin-2-yl)-1H-pyrazolo[3,4-b]pyridin-3-yl)-2-methylphenyl)ethyl)-1,2,4-oxadiazole-3-carboxamide], with 1.74 nM; and `Cc1cc(CCN2CCN(c3ccc(-c4cnc5[nH]nc(-c6ccc([C@@H](C)NC(=O)c7noc(C(C)(C)C)n7)c(C)c6)c5c4)nc3)CC2)ncc1C1CCC(=O)NC1=O` (stereo partly drawn) [Example 147, 5-(tert-butyl)-N-((1R)-1-(4-(5-(5-(4-(2-(5-(2,6-dioxopiperidin-3-yl)-4-methylpyridin-2-yl)ethyl)piperazin-1-yl)pyridin-2-yl)-1H-pyrazolo[3,4-b]pyridin-3-yl)-2-methylphenyl)ethyl)-1,2,4-oxadiazole-3-carboxamide], with 2.11 nM. On to `Cc1cc(CCN2CCN(c3ccc(-c4cnc5[nH]nc(-c6ccc([C@@H](C)NC(=O)c7noc(C(C)(C)C)n7)c(C)c6F)c5c4)cc3)CC2)ncc1C1CCC(=O)NC1=O` (stereo partly drawn) [Example 148, 5-(tert-butyl)-N-((1R)-1-(4-(5-(4-(4-(2-(5-(2,6-dioxopiperidin-3-yl)-4-methylpyridin-2-yl)ethyl)piperazin-1-yl)phenyl)-1H-pyrazolo[3,4-b]pyridin-3-yl)-3-fluoro-2-methylphenyl)ethyl)-1,2,4-oxadiazole-3-carboxamide], for which the 50% degradation concentration (DC50) is 1.84 nM.

Regarding `Cc1cc(CCN2CCN(c3ccc(-c4cnc5[nH]nc(-c6ccc([C@@H](C)NC(=O)c7noc(C(C)(C)C)n7)c(CO)c6)c5c4)cc3)CC2)ncc1C1CCC(=O)NC1=O` (stereo partly drawn) [Example 149, 5-(tert-butyl)-N-((1R)-1-(4-(5-(4-(4-(2-(5-(2,6-dioxopiperidin-3-yl)-4-methylpyridin-2-yl)ethyl)piperazin-1-yl)phenyl)-1H-pyrazolo[3,4-b]pyridin-3-yl)-2-(hydroxymethyl)phenyl)ethyl)-1,2,4-oxadiazole-3-carboxamide], half-maximal degradation (DC50) was put at 1.6 nM.

In turn, `Cc1cc(-c2n[nH]c3ncc(-c4ccc(N5CCN(CCc6ccc([C@H]7CCC(=O)NC7=O)cc6)CC5)cc4)cc23)ccc1CNC(=O)c1cn(C(C)(C)C)nn1` [Example 150, (R)-1-(tert-butyl)-N-(4-(5-(4-(4-(4-(2,6-dioxopiperidin-3-yl)phenethyl)piperazin-1-yl)phenyl)-1H-pyrazolo[3,4-b]pyridin-3-yl)-2-methylbenzyl)-1H-1,2,3-triazole-4-carboxamide] gave a DC50 of 8.88 nM. Then `Cc1cc(-c2n[nH]c3ncc(-c4ccc(N5CCN(CCc6ccc([C@@H]7CCC(=O)NC7=O)cc6)CC5)cc4)cc23)ccc1CNC(=O)c1cn(C(C)(C)C)nn1` [Example 151, (S)-1-(tert-butyl)-N-(4-(5-(4-(4-(4-(2,6-dioxopiperidin-3-yl)phenethyl)piperazin-1-yl)phenyl)-1H-pyrazolo[3,4-b]pyridin-3-yl)-2-methylbenzyl)-1H-1,2,3-triazole-4-carboxamide], with 17.8 nM; and `Cc1cc(-c2n[nH]c3ncc(-c4ccc(C5CCN(CCc6ccc([C@H]7CCC(=O)NC7=O)cc6)CC5)nc4)cc23)ccc1[C@@H](C)NC(=O)c1noc(C(C)(C)C)n1` [Example 152, 5-(tert-butyl)-N—((R)-1-(4-(5-(6-(1-(4-((R)-2,6-dioxopiperidin-3-yl)phenethyl)piperidin-4-yl)pyridin-3-yl)-1H-pyrazolo[3,4-b]pyridin-3-yl)-2-methylphenyl)ethyl)-1,2,4-oxadiazole-3-carboxamide], with 1.03 nM; and `Cc1cc(-c2n[nH]c3ncc(-c4ccc(C5CCN(CCc6ccc([C@@H]7CCC(=O)NC7=O)cc6)CC5)nc4)cc23)ccc1[C@@H](C)NC(=O)c1noc(C(C)(C)C)n1` [Example 153, 5-(tert-butyl)-N—((R)-1-(4-(5-(6-(1-(4-((S)-2,6-dioxopiperidin-3-yl)phenethyl)piperidin-4-yl)pyridin-3-yl)-1H-pyrazolo[3,4-b]pyridin-3-yl)-2-methylphenyl)ethyl)-1,2,4-oxadiazole-3-carboxamide], with 11.8 nM.

Take `Cc1cc(CCN2CCN(c3ccc(-c4cnc5[nH]nc(-c6ccc([C@@H](C)NC(=O)c7nc(C(C)(C)C)no7)c(C)c6)c5c4)cc3)CC2)ncc1C1CCC(=O)NC1=O` (stereo partly drawn) [Example 154, 3-(tert-butyl)-N-((1R)-1-(4-(5-(4-(4-(2-(5-(2,6-dioxopiperidin-3-yl)-4-methylpyridin-2-yl)ethyl)piperazin-1-yl)phenyl)-1H-pyrazolo[3,4-b]pyridin-3-yl)-2-methylphenyl)ethyl)-1,2,4-oxadiazole-5-carboxamide]: the DC50 is 3.27 nM. As for `Cc1cc(-c2n[nH]c3ncc(-c4ccc(N5CCN(CCc6ccc(C7CCC(=O)NC7=O)c(C)n6)CC5)cc4)cc23)ccc1[C@@H](C)NC(=O)c1noc(C(C)(C)C)n1` (stereo partly drawn) [Example 155, 5-(tert-butyl)-N-((1R)-1-(4-(5-(4-(4-(2-(5-(2,6-dioxopiperidin-3-yl)-6-methylpyridin-2-yl)ethyl)piperazin-1-yl)phenyl)-1H-pyrazolo[3,4-b]pyridin-3-yl)-2-methylphenyl)ethyl)-1,2,4-oxadiazole-3-carboxamide], the figure is 2.92 nM; as for `Cc1cc(-c2n[nH]c3ncc(-c4ccc(N5CCN(CCc6ccc(C7CCC(=O)NC7=O)c(C)n6)CC5)cc4)cc23)ccc1[C@@H](C)NC(=O)c1nc(C(C)(C)C)no1` (stereo partly drawn) [Example 156, 3-(tert-butyl)-N-((1R)-1-(4-(5-(4-(4-(2-(5-(2,6-dioxopiperidin-3-yl)-6-methylpyridin-2-yl)ethyl)piperazin-1-yl)phenyl)-1H-pyrazolo[3,4-b]pyridin-3-yl)-2-methylphenyl)ethyl)-1,2,4-oxadiazole-5-carboxamide], 2.14 nM.
